Here are results for 3 molecules from patent US20040241184A1, “Fermentation product of cyptoporous volvatus and its preparation method and use” (priority 2001, published 2004).

Assay [1] has as its system cavy cough caused by citric acid. Put plainly: Cough reverberation of cavy caused by citric acid. The class given is in vivo. The settings on record: 10 mg · kg^−1, once daily 3 days. As to the method:
Put cavies into a volume marked box to stabilize for 1 min, and then atomize 15% citric acid for 2 min by ultrasonic nebulizer. From then on, select the cavies that cough more than 10 times in minutes. Divide the selected cavies into 5 groups in terms of their cough times, and then treat them respectively with testing medicine sample CVFS 0.3 g/kg, 0.9 g/kg, 2.7 g/kg, positive control codeine phosphate (10 mg/kg), and the negative control group is administered by intragater method with 10 ml·kg^−1 physiological saline solution (i.g), one time every day, altogether 3 days. 1 hour after the last administration of medicine, induce cough by above method and count the cough times in 10 min from the beginning of atomization.

The test system of assay [2] is sensitized cavies attacked by antigen (egg albumin). The assay is described as follows: Elementarily separated substances: inflammatory cells in bronchial lung lavage solution of sensitized cavies after antigen attack (Table 5). The class given is in vivo, cavy. Particulars: 0.5 mg/kg intraperitoneal, 10 days. As to the method: 2% egg albumin gel solution is used to cause allergy. The medicine samples are administered since the tenth day after allergy has been caused. The cavies are administered by introgaster method with this tested medicine sample or with physiological saline solution (10 ml/kg); or administered by intraperitoneal method with dexamethasone (0.5 mg/kg). All of the testing medicine samples are administered 10 days. A: total polysaccharide extracted from fermentation product; B: total alkaloids extracted from fermentation product; C: volatile oil extracted from fermentation product; D: organic acid extracted from fermentation product; E: water extract of fermentation product; positive control: dexamethasone.

For assay [3] the test system is unchanged. The assay is described as follows: Example 4 polysaccharide: inflammatory cells in bronchial lung lavage solution of sensitized cavies after antigen attack (Table 7). The class given is in vivo, cavy. Particulars: 0.5 mg/kg. As for the experimental part:
Take 20 g fermentation mycelial powder, add in 400 mL distilled water, boil and extract for 30 min. After filtration, add another 200 mL distilled water to the residue, then repeat the same steps. Mix the filtrate of the two times and add in 100 mL culture supernatant fluid. Then put the mixture into dialysis bag of retention molecular weight 10,000 Dalton and dialyze 10 mM pH6.0 buffer solution of HAc-NaAc 2000 mL for three days to remove small molecular substances in the solution. Change the penetrated liquid 1 time each day.
Then concentrate the residue to 100 mL. On animal test, the polysaccharide affects inflammatory cells in bronchial lung lavage solution of sensitized cavies after being attacked by antigen. (The results are described in Table 7.) 2% egg albumin gel solution is used to cause allergy and is subcutaneous injected (0.05 mL each part) in ten parts of two retral soles, groin, waist, back, neck and armpits of each cavy. 0.5 mL 2% egg albumin gel solution is intraperitoneal injected at the same time. The samples are injected since the tenth day after allergy has been caused.

Assay [4] has the same test system. Put plainly: Inflammatory cells in bronchial lung lavage solution of sensitized cavies after antigen attack (Table 3). The class given is in vivo, cavy. Particulars: 0.5 mg/kg Ip, 10 days. As to the method:
2% egg albumin gel solution is used to cause allergy and is subcutaneously injected (0.05 mL each part) in ten parts of two retral soles, groin, waist, back, neck and armpits of each cavy. 0.5 mL 2% egg albumin gel solution is intraperitoneally injected at the same time. The medicine samples are injected since the tenth day after allergy has been caused. The testing samples of A2, B2, C2 or physiological saline solution (NS, 0.5 mL/kg) or dexamethasone (DXM, […]) are intraperitoneal injected respectively; A1, B1 (5 g/kg), C1 (2.5 g/kg) are administered by intragaster. The above testing samples are administered 10 days. A1: fermentation mycelium powder; […]: culture supernatant concentrated fluid; C1: sporophore powder; A2: water extract of fermentation mycelium; B2: fermentation concentrated fluid; C2: water extract of sporophore powder; dexamethasone sodium phosphate. Asthma as a chronic airway inflammatory disease is characterized by significant increase of eosinophils of bronchus and lung. Eosinophils can release tens of inflammatory substances, such as cytokines, leukotriene and prostapar etc., which may cause inflammation, edema, injury and thickening of airway, make narrow airway and therefore lead to dyspnea. Thus, eosinophil is considered as a target of screening drugs for relieving cough at present. The medicine, which can inhibit inflammation of airway eosinophils, would probably be used for preventing and treating asthma.

Assay [5] concerns sensitized cavies attacked by antigen (1% egg albumin). Put plainly: Pulmonary mechanical function (lung resistance RL) of sensitized cavies after antigen attack. The class given is in vivo, cavy. The settings on record: 7 mg/kg×1 d; P<0.05˜0.01 in all time phases during 10 min after antigen attack.
Protocol: Suppose airway resistance (RL) is 1005 before being attacked by antigen. Compared with the model group: *P<0.05, **P <0.001, ***P<0.001.
Each cavy is sensitized by being injected 10 mg egg albumin into the muscles of its crus. 3-4 weeks later, antigen attack (1% egg albumin) is given and the caused changes of lung resistance (RL) are observed to evaluate the activity of the samples.

For the molecule `COc1ccc2c3c1O[C@H]1[C@@H](O)C=C[C@H]4[C@@H](C2)N(C)CC[C@@]341` [Codeine phosphate, codeine phosphate], in assay [1], the “Cough times (in 10 min)” value was found to be 9.4 ± 8.0 and the “Inhibition of cough times %” value came to 67.4%.

For `C[C@@H]1C[C@H]2[C@@H]3CCC4=CC(=O)C=C[C@]4(C)[C@@]3(F)[C@@H](O)C[C@]2(C)[C@@]1(O)C(=O)CO` [DXM, dexamethasone], in assay [2], the Eosinophils came to 0.00 ± 0.00 %, the “Leukocyte total number” value stood at 330.5 ± 254.3 Number/mm3, the Lymphocyte turned out to be 87.70 ± 18.73 % and the Neutrophil worked out at 12.30 ± 18.74%. Moreover, in assay [3], the Eosinophil was determined as 0.00 ± 0.00 %, the Leukocyte counts was found to be 330.5 ± 254.3 Number/mm3, the Lymphocyte came out at 87.70 ± 18.73 % and the Neutrophil came to 12.30 ± 18.74%. In assay [4], the Eosinophils came to 2.60 ± 3.9 %, the Leukocyte total number is on record as 241.6 ± 179.2 Number/mm^3, the Lymphocyte turned out to be 68.4 ± 18.4 % and the Neutrophil came out at 28.9 ± 16.6%.

Regarding `CC(C)(C)NCC(O)c1ccc(O)c(CO)c1` (stereo not drawn) [salbutamol], the “inhibition of increase of lung resistance (RL) caused by antigen attack” value in assay [5] is “evident inhibition”.
